Columns and labels:
[1] = test system: MM cells; assay: Anti-MM activity of reversine analog; format: cell-based; details: FIG. 14
Description: MTT cell survival assay. Viability of cells treated with reversine, alone or combined with other agents, was assessed by measuring 3-(4,5-dimethylthiazol-2-yl)-2,5-diphenyl tetrasodium bromide (MTT, Chemicon International, Temecula, Calif.) dye absorbance. Cells were pulsed with 1:10 the culture volume of 5 mg/ml MTT to each well for the last 4 hrs of 72 hr cultures, followed by 1.5-3 fold the culture volume of isopropanol containing 0.04N HCl. Absorbance was measured at 570/630 nm using a spectrophotometer (Molecular Devices Corp., Sunnyvale Calif.). Recombinant human IL-6 and IGF (R&D Systems; Minneapolis, Minn.) was used at 10 ng/mL and 50 ng/mL respectively, as indicated. For testing normal PBMCs, healthy donor blood was collected using heparinized tubes, separated by Ficoll (Amersham Biosciences; Sweden) gradient separation and plated at 150,000 cells per well and pre-stimulated, as indicated, with 5 ng/mL PHA (Sigma) for 24 hrs.

[2] = test system: various phosphatases; details: 500 nM
Description: In vitro activity against phosphatases. In vitro phosphatase activity was screened at 500 nM reversine using the DiFMUP technology (Molecular Probes). Briefly, 6,8-difluoro-4-methylumbelliferyl phosphate substrate is combined with ATP and drug. The removal of the phosphate group on 6,8-difluoro-4-methylumbelliferyl yields a more fluorescent version of the substrate than the non-hydrolyzed form. The amount of fluorescent signal directly corresponds to the level of phosphatase activity.

[3] = test system: MR20 myeloma cells; details: 72 hours
Description: Treatment of reversine in the Side Populations of MR20 myeloma cells. MR20 cells were plated at a density of 1×10*5 cells/mL in RPMI media supplemented with Pen/Strep and 10% FBS. Reversine was added to the cells at a range of concentrations, the cells were then incubated for 72 hrs at 37 degrees C. Following the incubation period, the cells were collected and stained with Hoescht, and counter stained with 7-AAD. Reserpine, a inhibitor of the membrane transporter, was added to a sample of control cells to identify the “side population” cells (control). The samples were then analyzed on a BD FACS Aria with a UV laser to excite the Hoescht stain. The samples were first gated on the cellular fraction (by forward and side scatter), then on the viable cells (7-AAD negative), then on the Hoescht-Blue negative Hoescht-Red negative fraction representing the Side Population.

[4] = test system: chicken B-cell line DT40; details: FIG. 13
[5] = test system: various kinases; details: 500 nM
Description: In vitro activity against kinases. Kinase activity was screened using 500 nM of reversine (in 1% DMSO) and ATP using the Invitrogen Z′-LYTE™ kinase assay platform (Invitrogen). In summary, in first reaction the kinase transfers the gamma-phosphate of ATP to a single tyrosine, serine or threonine residue in a synthetic FRET-peptide. In the secondary reaction, a site-specific protease recognizes and cleaves non-phosphorylated FRET-peptides. To calculate kinase activity, the ratio of donor emission to acceptor emission after excitation of the fluorophore at 400 nm was compared.

[6] = test system: MM.1S cells; details: 1 microM reversine, 2-48 hr
Description: Immunoblotting analysis. Immunoblotting was performed by scrapping cells (1×10^6), centrifuged briefly and lysed for 30 min on ice in 50 mM Tris-HCl, pH 8.0, containing 120 mM NaCl and 1% Igepal, supplemented with the Complete-TM mixture of proteinase inhibitors. The samples were cleared by centrifugation (14,000 rpm, 30 min, 4° C.) and assessed for protein concentration. SDS-polyacrylamide gel electrophoresis (12%) was performed (30-50 μg of protein per lane) and the proteins were electroblotted onto PVDF membranes. After 1 hour incubation in blocking solution (5% milk in TBST), the membranes were exposed to primary antibody overnight at 4° C. Following washing in TBST, the respective secondary HRP-labeled antibody was added at 1:20,000 dilution for 1 hr at room temperature. The membrane was then washed with TBST for 45-60 min with multiple changes of the wash buffer. Following washing, the protein expression was visualized using the ECL technique. The primary antibodies used for immunoblotting were purchased from Santa Cruz Biotechnology (Santa Cruz, Calif.), Upstate Biotechnologies (Lake Placid, N.Y.) or Cell Signaling (Beverly, Mass.). Secondary antibodies were purchased from (Jackson ImmunoResearch West Grove, Pa.).

[7] = test system: OPM2 cells; details: oral gavage, 1 mg/kg twice weekly
Description: Anti-myeloma activity in animals. […] Briefly, male (6 to 8-week old) SCID/Beige mice, housed and monitored in the Animal Research Facility of the Dana-Farber Cancer Institute, were irradiated (300 rads) using Cs^137 gamma-irradiator source, and received (24 hrs post-irradiation) tail i.v. injections of 10^6 OPM2 cells suspended in total volume of 200 microL of phosphate buffered saline (PBS) per mouse. Mice were monitored for changes in body weight and signs of infection or paralysis. In accordance with institutional guidelines, mice were sacrificed by CO2 inhalation in the event of paralysis or major compromise in their quality of life. All experimental procedures and protocols had been approved by the Animal Care and Use Committee of the Dana-Farber Cancer Institute. Overall survival (defined as time between i.v. injection of tumor cells and sacrifice or death) was compared in control vs. 1 mg/mg reversine-treated (P.O. twice weekly) mice by Kaplan-Meier method.

[8] = test system: tumor cell lines, including myeloma, leukemia, lymphoma and thyroid
Description: Cell lines. ARD, ARH-77, ARK, ARO, ARP-1, BHT101, BHP-10-3, BHP-14-9, BHP-17-10, BHP-18-17, BHP-19-24, BHP2-7, BHP-5, BHP-7, DHL-4, DHL-6, DHL-7, DHL-8, DHL-10, Dox6, EJM, FRO, IM9, INA-6, JJN3, KAT-4, KAT-4B, KAT4C, KAT18, KMS-1, KMS-11, KMS-12BM, KMS-18, KMS-20, KMS-26, KMS-28-BM, KMS-28-PE, KMS-34, KMS-5, L363, LPCL-HO, LRS, MM-AS, MEG-01, MM144, MM-1R, MM-1S, MM1S-Akt, MMSV, Namalwa, NCI-H929, NOP2, NPA, OCI MY1, OCI-MY5, OCI-My7, OPM-1, OPM-2, OPM-6, RPMI8226, S6B45, SKMM2, SW579, SW1736, THLE-3, TK PCL, TT, U266, WM-WSU, WRO, XG1, and ZR-75-1 were grown in either Dulbecco's modified Eagle's medium (DMEM) (BioWhittaker, Walkersville, Md.) or Roswell Park Memorial Institute medium (RPMI) (BioWhittaker) with 100 U/ml penicillin, 100 μg/ml streptomycin and 10% fetal calf serum (FCS) (GIBCO/BRL, Gaithersburg, Md.), unless stated otherwise.
(§1) MTT cell survival assay. Viability of cells treated with reversine, alone or combined with other agents, was assessed by measuring 3-(4,5-dimethylthiazol-2-yl)-2,5-diphenyl […] bromide (MTT, Chemicon International, Temecula, Calif.) dye absorbance. Cells were pulsed with 1:10 the culture volume of 5 mg/ml MTT to each well for the last 4 hrs of 72 hr cultures, followed by 1.5-3 fold the culture volume of isopropanol containing 0.04N HCl. Absorbance was measured at 570/630 nm using a spectrophotometer (Molecular Devices Corp., Sunnyvale Calif.). Recombinant human IL-6 and IGF (R&D Systems; Minneapolis, Minn.) was used at 10 ng/mL and 50 ng/mL respectively, as indicated. For testing normal PBMCs, healthy donor blood was collected using heparinized tubes, separated by Ficoll (Amersham Biosciences; Sweden) gradient separation and plated at 150,000 cells per well and pre-stimulated, as indicated, with 5 ng/mL PHA (Sigma) for 24 hrs.

[9] = test system: GFP-luc expressing MM.1R cells; details: 72 hrs, luciferase readout
Description: (§2) Activity against myeloma cells in co-culture with bone marrow stromal cells. Co-culture Stromal cells were plated at a density of 10,000 cells per well in optical 96-well plates and were incubated for 24 hrs to allow for attachment. Tumor cell lines stably expressing luciferase were plated at 1500 cells per well. Cells were treated immediately following plating and incubated for 72 hrs. Luciferin substrate was added to cultures, mixed, and incubated at room temperature. Samples were read using a Luminoskan luminometer (Labsystems, Ramsey, Minn.).

[10] = test system: GFP-luc expressing MM.1S cells; details: 72 hrs, luciferase readout
Description: as §2

[11] = test system: MM cell lines; details: reversine 1 μM, washout, then drug-free medium
Description: Cell death commitment assay. The minimum time length of exposure to reversine that is required to commit MM cells to apoptosis was evaluated by incubating cells in 24-well plates with reversine (1 μM) for 1, 2, 4, 8, 16 or 24 hours. At the end of this incubation, the cells were washed 3 times and incubated in drug-free medium for an additional 3 days, resulting in equal length of total incubation for all experimental conditions ([…]), at which point cell survival was quantified by MTT, as above, and expressed as percentage of the value obtained from respective controls.

[12] = test system: MM cells (MM.1S, OPM-1 human tumor cells); details: 1 microM reversine
Description: Cell cycle analysis. Cell lines, treated with reversine for 0, 2, 4, 8,16, 24, and 48 hrs were stained using a solution of propidium iodide (Sigma) and RNase A following 70% EtOH fixation.

[13] = test system: primary myeloma tumor specimens from heavily pre-treated patients
Description: as §1

[14] = test system: peripheral blood mononuclear cells (PBMCs)
Description: as §1

[15] = test system: hepatocytes; details: 1 microM, in vitro
Description: as §1

[16] = test system: stromal cells; details: 1 microM, in vitro
Description: as §1

[17] = test system: MM.1S tumor cell line
Description: as §1

[18] = test system: MM cells; details: combined with dexamethasone (5 nM)
Description: as §1

Structure (SMILES): c1nc2nc(NC3CCCCC3)nc(Nc3ccc(N4CCOCC4)cc3)c2[nH]1 [retreversine]
- anti-MM activity in comparison with reversine [1]: reduced activity

Structure (SMILES): c1nc2nc(Nc3ccc(N4CCOCC4)cc3)nc(NC3CCCCC3)c2[nH]1 [reversine, 2-(4-morpholinoanilino)-6-cyclohexylaminopurine]
- inhibition of phosphatase activity [2]: inhibition of phosphatase activity was not seen
- sensitivity of side population (SP) cells versus main population [3]: more sensitive than the main population
- percentage of SP cells ([3]; increasing concentrations): decreased with increasing doses
- sensitivity of syk-expressing versus syk-/- DT40 cells [4]: more sensitive
- inhibition of kinase activity [5]: inhibition of kinase activity was observed
- B-raf and Akt levels [6]: inhibition of B-raf and Akt levels
- apoptosis markers (caspase 3, PARP) [6]: cleavge of caspase 3 and PARP
- effect on chaperone proteins Hsp70 and Hsp90 [6]: minimal affects
- phospho-specific proteins (phospho-Akt, phospho-MEK, phospho-MAPK, phospho-IKB, phospho-p70S6K) ([6]; no increase in total protein levels): increased levels
- survival compared to control mice [7]: Survival was extended
- concentration with significant anti-tumor activity ([8]; in many cases): ≤ 1 µM
- anti-tumor effects in tumor cell lines ([8]; myeloma, leukemia, lymphoma and thyroid lines, FIG. 1): anti-tumor effects in a broad range of tumor cell lines
- anti-tumor effect, potency in words ([8]; subset of MM cell lines): sub-micro molar anti-tumor effect
- survival rate ([8]; wide variety of tumor cell lines, reversine between 1 and 10 μM, 72 hour exposure): 0%
- sensitivity in co-culture with bone marrow stromal cells [9]: increased
- sensitivity in co-culture with bone marrow stromal cells [10]: increased
- treatment time that commits cells to death [11]: less than 24 hrs
- exposure time after which the sub-G0 fraction increases [12]: more than 16 hr
- time of G2 arrest after initial exposure [12]: 8 to 16 h
- dose with anti-MM activity [13]: ≤ 1 µM
- toxicity to PBMCs stimulated with phytohaemagglutinin ([14]; PHA-stimulated, in vitro): limited toxicity
- toxicity to PBMCs ([14]; unstimulated, doses as high as 10 microM): does not cause major toxicity
- toxicity to hepatocytes [15]: minimal toxicity
- toxicity to stromal cells [16]: minimal toxicity
- difference in normalized effect with versus without cytokines ([17]; 10 μM reversine): virtually no difference
- tumor cell viability ([17]; presence or absence of cytokines (IL-6, IGF)): dose dependent decrease in tumor cell viability
- anti-MM activity of combination [18]: greater than additive

Reference: US8466147B2, “Use of reversine and analogs for treatment of cancer” (Dana-Farber Cancer Institute, Inc., priority 2006, dated 2013)
